According to patent US11578055B2, “Triazacyclododecansulfonamide (“TCD”)-based protein secretion inhibitors” (KEZAR LIFE SCIENCES, priority 2018, dated 2023):
Like-named read-outs stand apart in the source and are kept apart here.

How the values were obtained:
[1] = In Vitro Microsome Stability Assay (human); format: in vitro ADME
How it was run: (§1)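 The value reported is the percentage of parent left after 30 min, calculated from analyte/IS peak-area ratios relative to time zero by LC-MS/MS. Incubations ran at 37° C in 0.1 M potassium phosphate with NADPH and microsomes (stock 20 mg/mL), with compound added from a 0.25 mM DMSO stock. Acetonitrile containing IS stopped the reactions.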

[2] = test system: multiple myeloma cell line NCl-H929; test: H929 Cell Viability Assay; format: cell-based, human; settings: Homo sapiens, NCI-H929, 48 h
How it was run: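 NCI-H929 myeloma cells in RPMI 1640 with 10% FBS were treated with compound dilutions for 48 h at 37 °C, and viability was then read by CellTiter-Glo luminescence. Compounds drawn without stereochemistry were tested as stereoisomer mixtures.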

[3] = In Vitro Microsome Stability Assay (mouse); format: in vitro ADME
How it was run: as §1

[4] = test system: PD1 signal sequence plus 10 amino acids fused to Gaussia Luciferase (PD1-ss+10aa/Gaussia Luciferase); test: Dox Induced PD1-ss-Gluc Assay; format: cell-based; settings: 24 hr, read-out: 24 hr Dox Inducible PD1ssGluc 293FRT/TO: Mean IC50
How it was run: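 Stable Flp-In 293 T-REx line expressing the fusion under tetracycline-inducible control, plated the day before assay. Compound dilutions added with doxycycline and incubated at 37 °C, 5% CO2; unspecified stereocentres mean data refer to stereoisomer mixtures.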

[5] = In Vitro Microsome Stability Assay (rat); format: in vitro ADME
How it was run: as §1

[6] = In Vitro Microsome Stability Assay (monkey); format: in vitro ADME
How it was run: as §1

[7] = test system: multiple myeloma cell line U266B1; test: U266 Cell Viability Assay; format: cell-based, human; settings: Homo sapiens, U-266, 48 hr
How it was run: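 U266B1 myeloma cells in RPMI 1640 with 10% FBS were treated with compound dilutions for 48 h at 37° C, 5% CO2. Viability was read as CellTiter-Glo luminescence. Data for structures drawn without stereochemistry refer to stereoisomer mixtures.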

[8] = test system: full length IL-2 (amino acids 1-153) fused to Gaussia Luciferase; test: Dox Induced IL2-FL-Gluc Assay; format: cell-based; settings: 24 hr, read-out: 24 hr Dox Inducible IL2FLGluc 293FRT/TO: Mean IC50
Description: FIp-In 293 T-REx™ cells were transfected with pcDNA™5/FRT/TO plasmid inserted with cDNA encoding Gaussia Luciferase fused to the 3′ end of cDNA encoding full length IL-2 (amino acids 1-153). Transfected cells were selected for resistance to the selectable markers Hygromycin and Blasticidin to create a stable cell line that contained the IL-2-FL/Gaussia Luciferase cDNA insert whose expression was regulated under the T-REx™ system. The day before assay, cells were trypsinized and plated in 384-well tissue culture plates. The next day, compound dilutions in DMSO/media containing doxycycline were added to the wells and incubated at 37° C., 5% CO2.
For chemical structures that include one or more stereoisomers, but are illustrated without indicating stereochemistry, the assay data refers to a mixture of stereoisomers.

[9] = test system: full length TNFα (amino acids 1-233) fused to Gaussia Luciferase; test: Dox Induced TNFα-FL-Gluc Assay; format: cell-based; settings: 24 hr, read-out: 24 hr Dox Inducible TNFaFLGluc 293FRT/TO: Mean IC50
How it was run: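 Stable Flp-In 293 T-REx line expressing doxycycline-inducible full-length TNFα fused to Gaussia luciferase; cells plated the day before, then treated with compound dilutions in doxycycline-containing medium at 37° C, 5% CO2. Unspecified stereocentres mean stereoisomer mixtures were tested.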

[10] = H929, read-out: 48 hr H929 Viability Celltiter-Glo: Mean EC50
[11] = U266, read-out: 48 hr U266 Viability Celltiter-Glo: Mean EC50
[12] = human liver microsomes, 30 min w/ NADPH
[13] = mouse liver microsomes, 30 min w/ NADPH
[14] = rat liver microsomes, 30 min w/ NADPH
[15] = monkey liver microsomes, 30 min w/ NADPH

Row | Liver Microsome Stability-% Left after 30 min w/ NADPH (%) Human ([1]; human, 30 min, NADPH) [%] | EC50 [2, 10] [µM] | Liver Microsome Stability-% Left after 30 min w/ NADPH (%) Mouse ([3]; mouse, 30 min, NADPH) [%] | IC50 ([4]; 293FRT/TO) [µM] | Liver Microsome Stability-% Left after 30 min w/ NADPH (%) Rat ([5]; rat, 30 min, NADPH) [%] | Liver Microsome Stability-% Left after 30 min w/ NADPH (%) Monkey ([6]; monkey, 30 min, NADPH) [%] | EC50 [7, 11] [µM] | IC50 ([8]; 293FRT/TO) [µM] | IC50 ([9]; 293FRT/TO) [µM] | Liver Microsome Stability-% Left after 30 min w/ NADPH (%) Human [1, 12] [%] | EC50 ([2]; H929, Celltiter-Glo) [µM] | Liver Microsome Stability-% Left after 30 min w/ NADPH (%) Mouse [3, 13] [%] | IC50 ([4]; Dox inducible, 293FRT/TO cells) [µM] | Liver Microsome Stability-% Left after 30 min w/ NADPH (%) Rat [5, 14] [%] | Liver Microsome Stability-% Left after 30 min w/ NADPH (%) Monkey [6, 15] [%] | EC50 ([7]; U266, Celltiter-Glo) [µM] | IC50 ([8]; Dox inducible, 293FRT/TO cells) [µM] | IC50 ([9]; Dox inducible, 293FRT/TO cells) [µM] | Compound
1 | 23.7 | 3.01 | 25.4 | 0.193 | 21.6 | 21.8 | 14.7 | 0.377 | 2.46 | – | – | – | – | – | – | – | – | – | C[C@H]1CN(S(=O)(=O)c2ccc(N(C)C)cc2)CCCN(CC2CCCCC2)CCCN(S(=O)(=O)N2CC[C@H](c3ccccc3)C2)C1 [A91, 4-{[(3S)-9-(cyclohexylmethyl)-3-methyl-5-{[(3 R)-3-phenylpyrrolidin-1-yl]sulfonyl}-1,5,9-triazacyclododecan-1-yl]sulfonyl}-N,N-dimethylaniline]
2 | – | – | – | – | – | – | – | – | – | 0.44 | > 25 | 0.83 | > 25 | 0.47 | 0.96 | > 25 | > 25 | > 25 | C[C@@H]1CCN(S(=O)(=O)N2CCc3cc(Cl)ccc3C2)CCCN(CC2CCCCC2)CCCN1S(=O)(=O)c1ccc(N(C)C)cc1 [A149, 4-{[(2 R)-5-[(6-chloro-1,2,3,4-tetrahydroisoquinolin-2-yl)sulfonyl]-9-(cyclohexylmethyl)-2-methyl-1,5,9-triazacyclododecan-1-yl]sulfonyl}-N,N-dimethylaniline]
3 | – | – | – | – | – | – | – | – | – | 0.17 | > 25 | 0.16 | 3.95 | 0.06 | 0.03 | > 25 | > 25 | > 25 | C[C@H]1CN(S(=O)(=O)c2ccc(N(C)C)cc2)CCCCN(S(=O)(=O)N2CCc3cc(Cl)ccc3C2)C1 [B21]
4 | – | – | – | – | – | – | – | – | – | 0.80 | 20.2 | 0.44 | 2.74 | 1.97 | 0.08 | > 25 | 13.8 | > 25 | C[C@H]1CN(S(=O)(=O)c2ccc3oncc3c2)CCCN(CC2CCCCC2)CCCN(S(=O)(=O)N2CCc3cc(Cl)ccc3C2)C1 [A180]
5 | 57.5 | > 25 | 55.2 | 0.202 | 32.8 | 26.9 | > 25 | 0.351 | 7.34 | – | – | – | – | – | – | – | – | – | Cc1cccc(N2CCN(S(=O)(=O)N3CCCN(CC4CCCCC4)CCCN(S(=O)(=O)c4ccc(N(C)C)cc4)C[C@H](C)C3)CC2)c1 [A98, 4-{[(3S)-9-(cyclohexylmethyl)-3-methyl-5-{[4-(3-methylphenyl)piperazin-1-yl]sulfonyl}-1,5,9-triazacyclododecan-1-yl]sulfonyl}-N,N-dimethylaniline]
6 | – | – | – | – | – | – | – | – | – | 0.2 | > 25 | 0.14 | 0.829 | 0.37 | 8.67 | > 25 | 1.09 | 11.5 | C[C@H]1CN(S(=O)(=O)c2ccc(N(C)C)cc2)CCCN(Cc2ncco2)CCCN(S(=O)(=O)N2CCc3cc(Cl)ccc3C2)C1 [A125, 4-{[(3S)-5-[(6-chloro-1,2,3,4-tetrahydroisoquinolin-2-yl)sulfonyl]-3-methyl-9-[(1,3-oxazol-2-yl)methyl]-1,5,9-triazacyclododecan-1-yl]sulfonyl}-N,N-dimethylaniline]
7 | – | – | – | – | – | – | – | – | – | 65.3 | 1.73 | 14.3 | 0.0265 | 26.6 | 23.2 | > 25 | 0.101 | 0.544 | CCc1ccc2c(c1)CCN(S(=O)(=O)N1CCCN(CC3CCCCC3)CCCN(S(=O)(=O)c3ccc(N(C)C)cc3)C[C@H](C)C1)C2 [A136, 4-{[(3S)-9-(cyclohexylmethyl)-5-[(6-ethyl-1,2,3,4-tetrahydroisoquinolin-2-yl)sulfonyl]-3-methyl-1,5,9-triazacyclododecan-1-yl]sulfonyl}-N,N-dimethylaniline]
8 | – | – | – | – | – | – | – | – | – | 3.69 | 2.17 | 5.06 | 0.0815 | 3.6 | 3.22 | > 25 | 0.174 | 1.03 | CC(C)CN1CCCN(S(=O)(=O)c2ccc(N(C)C)cc2)C[C@H](C)CN(S(=O)(=O)N2CCc3cc(Cl)ccc3C2)CCC1 [A152]
9 | – | – | – | – | – | – | – | – | – | 64.8 | > 25 | 69.0 | 0.455 | 57.9 | 40.9 | > 25 | 0.974 | > 25 | C[C@@H]1CN(CC2CCCCC2)C[C@@H](C)CN(S(=O)(=O)N2CCc3cc(Cl)ccc3C2)C[C@@H](C)CN(S(=O)(=O)c2ccc(N(C)C)cc2)C1 [A164]
10 | – | – | – | – | – | – | – | – | – | – | > 25 | – | 16.5 | – | – | > 25 | 6.92 | > 25 | C[C@@H](CNS(=O)(=O)c1ccc(N(C)C)cc1)CNS(=O)(=O)N1CCc2cc(Cl)ccc2C1 [B10, (S)-6-chloro-N-(3-((4-(dimethylamino)phenyl)sulfonamido)-2-methylpropyl)-3,4-dihydroisoquinoline-2(1H)-sulfonamide]
11 | – | – | – | – | – | – | – | – | – | – | > 25 | – | > 25 | – | – | > 25 | > 25 | > 25 | C[C@H](CNS(=O)(=O)c1ccc(N(C)C)cc1)CNS(=O)(=O)N1CCc2cc(Cl)ccc2C1 [B11, N-[(2 R)-3-{[(6-chloro-1,2,3,4-tetrahydroisoquinolin-2-yl)sulfonyl]amino}-2-methylpropyl]-4-(dimethylamino)benzene-1-sulfonamide]
12 | – | – | – | – | – | – | – | – | – | – | > 25 | – | 5.66 | – | – | > 25 | > 25 | > 25 | C[C@@H](CN(C)S(=O)(=O)c1ccc(N(C)C)cc1)CN(C)S(=O)(=O)N1CCc2cc(Cl)ccc2C1 [B12]
13 | – | – | – | – | – | – | – | – | – | 17.8 | 7.8 | 16.8 | 1.35 | 38.8 | 4.86 | > 25 | 3.48 | – | C[C@H]1CN(S(=O)(=O)c2ccc(N(C)C)cc2)CCCN(CC2CCCCC2)CCCN(S(=O)(=O)N2CCNCC2)C1 [A155, 4-{[(3S)-9-(cyclohexylmethyl)-3-methyl-5-(piperazine-1-sulfonyl)-1,5,9-triazacyclododecan-1-yl]sulfonyl}-N, N-dimethylaniline]
